Data as given in patent US8987273B2, “Substituted imidazo[1,2-B]pyridazines” (Bayer Intellectual Property GmbH, priority 2010, dated 2015).
Counter-ions that a name gives are not always drawn.

What was measured:
[1] = biological target: His-tagged human recombinant kinase full-length Akt1 (Homo sapiens (Human), UniProt P31749); assay: Akt1 kinase assay (TR-FRET); type: biochemical; conditions: 10 μM ATP; median
From the text: Akt1 inhibitory activity of compounds of the present invention was quantified employing the Akt1 TR-FRET assay as described in the following paragraphs. His-tagged human recombinant kinase full-length Akt1 expressed in insect cells was purchased form Invitrogen (part number PV 3599). As substrate for the kinase reaction the biotinylated peptide biotin-Ahx-[…] (C-terminus in amide form) was used which can be purchased e.g. from the company Biosynthan GmbH (Berlin-Buch, Germany).
(§1) For the assay 50 nl of a 100 fold concentrated solution of the test compound in DMSO was pipetted into a black low volume 384 well microtiter plate (Greiner Bio-One, Frickenhausen, Germany), 2 μl of a solution of Akt1 in assay buffer [50 mM TRIS/HCl pH 7.5, 5 mM MgCl2, 1 mM dithiothreitol, 0.02% (v/v) Triton X-100 (Sigma)] were added and the mixture was incubated for 15 min at 22° C. to allow pre-binding of the test compounds to the enzyme before the start of the kinase reaction. Then the kinase reaction was started by the addition of 3 μl of a solution of adenosine-tri-phosphate (ATP, 16.7 μM=>final conc. in the 5 μl assay volume is 10 μM) and substrate (1.67 μM=>final conc. in the 5 μl assay volume is 1 μM) in assay buffer and the resulting mixture was incubated for a reaction time of 60 min at 22° C. The concentration of Akt1 in the assay was adjusted depending of the activity of the enzyme lot and was chosen appropriate to have the assay in the linear range, typical enzyme concentrations were in the range of about 0.05 ng/μl (final conc. in the 5 μl assay volume).
(§2) The reaction was stopped by the addition of 5 μl of a solution of HTRF detection reagents (200 nM streptavidine-XL665 [Cisbio] and 1.5 nM anti-phosho-Serine antibody [Millipore, cat. #35-001] and 0.75 nM LANCE Eu-W 1024 labeled anti-mouse IgG antibody [Perkin Elmer]) in an aqueous EDTA-solution (100 mM EDTA, 0.1% (w/v) bovine serum albumin in 50 mM HEPES/NaOH pH 7.5).
(§3) The resulting mixture was incubated 1 h at 22° C. to allow the binding of the biotinylated phosphorylated peptide to the streptavidine-XL665 and the antibodies. Subsequently the amount of phosphorylated substrate was evaluated by measurement of the resonance energy transfer from the anti-mouse-IgG-Eu-Chelate to the streptavidine-XL665. Therefore, the fluorescence emissions at 620 nm and 665 nm after excitation at 350 nm was measured in a HTRF reader, e.g. a Rubystar (BMG Labtechnologies, Offenburg, Germany) or a Viewlux (Perkin-Elmer). The ratio of the emissions at 665 nm and at […] was taken as the measure for the amount of phosphorylated substrate. The data were normalised (enzyme reaction without inhibitor=0% inhibition, all other assay components but no enzyme=100% inhibition).

[2] = biological target: His-tagged human recombinant kinase full-length Akt2 (Homo sapiens (Human), UniProt P31751); assay: Akt2 kinase assay (TR-FRET); type: biochemical; conditions: 10 μM ATP; median
From the text: Akt2 inhibitory activity of compounds of the present invention was quantified employing the Akt2 TR-FRET assay as described in the following paragraphs.
His-tagged human recombinant kinase full-length Akt2 expressed in insect cells and activated by PDK1 was purchased form Invitrogen (part number PV 3975). As substrate for the kinase reaction the biotinylated peptide biotin-Ahx-[…] (C-terminus in amide form) was used which can be purchased e.g. from the company Biosynthan GmbH (Berlin-Buch, Germany).
as §1, with “Akt2” for “Akt1”, “0.2” for “0.05”
as §2, with “0.1%/w/v\” for “0.1% (w/v)”
as §3, with “TR-FRET” for “HTRF”

KPL-4 cells = assay: Tumor cell proliferation assay (CellTiter-Glo); type: cell-based; conditions: KPL4; 72 h drug exposure
Description: Compounds were tested in a cell-based assay that measures the capacity of the compounds to inhibit tumour cell proliferation following a 72 h drug exposure. Cell viability is determined using CellTiter-Glow® (CTG, Promega, cat# G757112/3). The CellTiter-Glo® Luminescent Cell Viability Assay is a homogeneous method to determine the number of viable cells in culture. Detection is based on using the luciferase reaction to measure the amount of ATP from viable cells. The amount of ATP in cells correlates with cell viability. Within minutes after a loss of membrane integrity, cells lose the ability to synthesize ATP, and endogenous ATPases destroy any remaining ATP; thus the levels of ATP fall precipitously.
Cells were plated at 3000-5000 cells/well (depending on the cell lines) in 90 μL growth medium on MTPs (Corning; #3603, black plate, clear flat bottom). For each cell line assayed, cells were plated onto a separate plate for determination of […] at t=0 hour and t=72 hour time points. Following overnight incubation at 37° C., chemiluminescence values for the t=0 samples were determined after adding 10 μl medium and 100 μl CTG solution according to manufacture protocol. Plates for the t=72 hour time points were treated with compounds diluted into growth medium at ten times final concentration added in 10 μL to the cell culture plate. Cells were then incubated for 72 hours at 37° C. Chemiluminescence values for the t=72 hour samples were determined. For data analysis, briefly, data from 24 h plate where used to reflect 100% inhibition of growth (“Ci”) and DMSO control for uninhibited growth (“C0”) and analyzed using MTS software package for IC50 and Hill coefficient. Experiments were controlled using a reference compound as standard.

[3] = test system: phospho-AKT at S473 in KPL4 breast tumour cell line; assay: Cellular p-AKT1/2/3-S473 assay; type: cell-based; conditions: KPL4 cells, 2 hours treatment; median; read-out: pAKT-S743 median IC50
Description: The molecular mechanism of action was investigated in a set of experiments to assess the inhibition of the PI3K-AKT-mTOR pathway in responsive cell lines such as KPL4 breast tumour cell line (PIK3CAH1047R, HER2O/E and hormone independent). The phospho-substrates of PI3K-AKT-mTOR axis were used as the read-outs to reflect pathway inhibition. Cells were seeded at 60-80% confluency per well in 96-well cell culture plates. After overnight incubation at 37° C. 5% CO2, cells were treated with compounds and vehicle at 37° C. for 2 hours. […] All measurements where at least done in duplicates and confirmed by independent repetition.
Alternatively pAKT-S473 was measured using the “Akt Duplex” of the MULTI-SPOT® Assay System (Fa. Meso Scale Discovery, Cat# N41100B-1) following manufacturers instructions. Each assay used 20 μg of protein extract and measured total AKT and p-AKT content simultaneously in one well. All measurements where at least done in duplicates and confirmed by independent repetition. Values for P-AKT are expressed as percentage of P-AKT level compared to total-AKT content of the extracts.

His-tagged human recombinant kinase full-length Akt1, sequence (P31749 whole entry): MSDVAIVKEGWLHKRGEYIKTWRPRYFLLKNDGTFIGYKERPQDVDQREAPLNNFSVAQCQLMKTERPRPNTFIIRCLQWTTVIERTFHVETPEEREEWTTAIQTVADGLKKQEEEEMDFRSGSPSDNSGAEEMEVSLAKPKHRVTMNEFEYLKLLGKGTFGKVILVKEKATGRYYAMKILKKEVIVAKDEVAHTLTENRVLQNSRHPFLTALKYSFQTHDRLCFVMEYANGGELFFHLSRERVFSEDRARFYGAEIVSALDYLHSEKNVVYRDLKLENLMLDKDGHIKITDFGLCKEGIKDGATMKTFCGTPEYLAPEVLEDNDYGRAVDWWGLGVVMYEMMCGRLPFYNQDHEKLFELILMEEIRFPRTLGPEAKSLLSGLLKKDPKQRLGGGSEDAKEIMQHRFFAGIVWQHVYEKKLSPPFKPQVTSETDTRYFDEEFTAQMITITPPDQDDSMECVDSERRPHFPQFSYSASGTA
His-tagged human recombinant kinase full-length Akt2, sequence (P31751 whole entry): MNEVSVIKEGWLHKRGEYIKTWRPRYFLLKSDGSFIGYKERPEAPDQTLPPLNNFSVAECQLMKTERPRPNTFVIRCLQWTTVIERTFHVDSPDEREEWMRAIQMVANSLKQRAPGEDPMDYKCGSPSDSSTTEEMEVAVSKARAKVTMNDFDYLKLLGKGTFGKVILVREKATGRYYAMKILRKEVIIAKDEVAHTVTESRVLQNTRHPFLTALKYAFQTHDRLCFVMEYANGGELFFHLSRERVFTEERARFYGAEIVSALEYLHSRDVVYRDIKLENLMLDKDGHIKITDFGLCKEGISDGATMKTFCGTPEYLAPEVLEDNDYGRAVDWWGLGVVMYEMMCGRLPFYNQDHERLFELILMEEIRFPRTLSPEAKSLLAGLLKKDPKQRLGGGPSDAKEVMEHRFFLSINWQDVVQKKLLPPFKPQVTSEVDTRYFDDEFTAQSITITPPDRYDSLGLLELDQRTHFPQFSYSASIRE

Row | SMILES | IC50 [1] [nM] | IC50 [2] [nM] | IC50 (KPL-4 cells) [nM] | IC50 [3] [nM]
1 | C=Cc1c(C)nc2cc(-c3ccccc3)c(-c3ccc(C4(N)CCC4)cc3)nn12 [Example 12-0, 1-[4-(2-Methyl-7-phenyl-3-vinyl-imidazo[1,2-b]pyridazin-6-yl)-phenyl]-cyclobutylamine] | 8940 | 16700 | 3200 | 10000
2 | NC1(c2ccc(-c3nn4c(-c5ccc(F)cc5)c(Cl)nc4cc3-c3ccccc3)cc2)CCC1 [Example 7-0, 1-{4-[2-Chloro-3-(4-fluorophenyl)-7-phenyl-imidazo[1,2-b]pyridazin-6-yl]-phenyl}-cyclobutylamine] | 99 | 106 | 3030 | 610
3 | Cc1nc2cc(-c3ccccc3)c(-c3ccc(C4(N)CCC4)cc3)nn2c1-c1ccn[nH]1 [Example 5-5, 1-{4-[2-Methyl-7-phenyl-3-(2H-pyrazol-3-yl)-imidazo[1,2-b]pyridazin-6-yl]-phenyl}-cyclobutylamine] | 2730 | 5230 | 3690 | 4110
4 | NC1(c2ccc(-c3nn4c(-c5ccc(F)c(CO)c5)cnc4cc3-c3ccccc3)cc2)CCC1 [Example 4-9, (5-{6-[4-(1-Amino-cyclobutyl)-phenyl]-7-phenyl-imidazo[1,2-b]pyridazin-3-yl}-2-fluorophenyl)-methanol hydrochloride] | 9 | 92 | 1560 | 40
5 | Cc1nc2cc(-c3ccccc3)c(-c3ccc(C4(N)CCC4)cc3)nn2c1/C=C/C(N)=O [Example 10-0, (E)-3-{6-[4-(1-Amino-cyclobutyl)-phenyl]-2-methyl-7-phenyl-imidazo[1,2-b]pyridazin-3-yl}-acrylamide] | 18000 | 20000 | 2490 | 10000
6 | Cc1cn2nc(-c3ccc(C4(N)CCC4)cc3)c(-c3ccccc3)cc2n1 [Example 1-1, 1-[4-(2-Methyl-7-phenyl-imidazo[1,2-b]pyridazin-6-yl)-phenyl]-cyclobutylamine hydrochloride] | 17300 | 20000 | 10000 | 10000
7 | Cc1cc(-c2c(C)nc3cc(-c4ccccc4)c(-c4ccc(C5(N)CCC5)cc4)nn23)[nH]n1 [Example 5-6, 1-{4-[2-Methyl-7-phenyl-3-(5-methyl-2H-pyrazol-3-yl)-imidazo[1,2-b]pyridazin-6-yl]-phenyl}-cyclobutylamine] | 14900 | 17200 | 9220 | 10000

More lines, in order of falling IC50 [1], values ahead:

Row | IC50 [1] [nM] | IC50 [2] [nM] | IC50 (KPL-4 cells) [nM] | IC50 [3] [nM] | SMILES
8 | 38 | 222 | 2420 | 50 | NC(=O)/C=C/c1cnc2cc(-c3ccccc3)c(-c3ccc(C4(N)CCC4)cc3)nn12 [Example 8-0, (E)-3-{6-[4-(1-Amino-cyclobutyl)-phenyl]-7-phenyl-imidazo[1,2-b]pyridazin-3-yl}-acrylamide]
9 | 19 | 123 | 1590 | 30 | NC1(c2ccc(-c3nn4c(-c5ccc(CO)cc5)cnc4cc3-c3ccccc3)cc2)CCC1 [Example 4-6, (4-{6-[4-(1-Amino-cyclobutyl)-phenyl]-7-phenyl-imidazo[1,2-b]pyridazin-3-yl}-phenyl)-methanol formiate]
10 | 9 | 67 | 550 | 10 | NC1(c2ccc(-c3nn4c(-c5cn[nH]c5)cnc4cc3-c3ccccc3)cc2)CCC1 [Example 4-12, 1-{4-[7-Phenyl-3-(1H-pyrazol-4-yl)-imidazo[1,2-b]pyridazin-6-yl]-phenyl}-cyclobutylamine]
11 | 6 | 37 | 1310 | 30 | NC1(c2ccc(-c3nn4c(-c5cccc(CO)c5)cnc4cc3-c3ccccc3)cc2)CCC1 [Example 4-5, (3-{6-[4-(1-Amino-cyclobutyl)-phenyl]-7-phenyl-imidazo[1,2-b]pyridazin-3-yl}-phenyl)-methanol]
12 | 5 | 82 | 1710 | 1550 | N#Cc1cccc(-c2cnc3cc(-c4ccccc4)c(-c4ccc(C5(N)CCC5)cc4)nn23)c1 [Example 3-0, 3-{6-[4-(1-Amino-cyclobutyl)-phenyl]-7-phenyl-imidazo[1,2-b]pyridazin-3-yl}-benzonitrile]
